In patent US6573262B2, “Composition and antiviral activity of substituted indoleoxoacetic piperazine derivatives” (priority 2000, dated 2003) one finds EC50 and inhibition data, which are given here for 51 compounds.

A value given as a limit tells only on which side of the number the result lay.

By EC50 is commonly meant the midpoint of the concentration-response curve. The term inhibition denotes the relative decrease from the control value, in per cent.

One assay relates to HIV-1 single-round infectious reporter virus. Nature of the assay: microbe, parasite or virus in culture. The assay is classed as cell-based. The following applies: Human immunodeficiency virus 1, HeLa-CD4/CCR5, 72 h, read-out: EC50 Group from Table 1.
On to `COc1ccc(-c2ncon2)c2[nH]cc(C(=O)C(=O)N3CCN(C(=O)c4ccccc4)CC3)c12` [Example 126], for which the EC50 is less than 1 µM.

Turning to `CC(C)(C)OC(=O)N1C=NNC(c2ccc(F)c3c(C(=O)C(=O)N4CCN(C(=O)c5ccccc5)CC4)c[nH]c23)=N1` [Example 132], the EC50 was less than 1 µM.

Take `CC(C)(C)NC(=O)NNC(=O)c1ccc(F)c2c(C(=O)C(=O)N3CCN(C(=O)c4ccccc4)CC3)c[nH]c12` [Example 133]: the EC50 is less than 1 µM.

As to `CC(C)NC(=O)NNC(=O)c1ccc(F)c2c(C(=O)C(=O)N3CCN(C(=O)c4ccccc4)CC3)c[nH]c12` [Example 134], the EC50 was less than 1 µM.

Consider `CCCNC(=O)NNC(=O)c1ccc(F)c2c(C(=O)C(=O)N3CCN(C(=O)c4ccccc4)CC3)c[nH]c12` [Example 135], for which the EC50 is less than 1 µM.

As to `COC(=O)CNc1nc(-c2ccc(F)c3c(C(=O)C(=O)N4CCN(C(=O)c5ccccc5)CC4)c[nH]c23)no1` [Example 140], the EC50 was less than 1 µM.

For `COC(=O)Cn1cnc(-c2ccc(F)c3c(C(=O)C(=O)N4CCN(C(=O)c5ccccc5)CC4)c[nH]c23)n1` [Example 144], the EC50 is less than 1 µM.

Consider `CNC(=O)Cn1cnc(-c2ccc(F)c3c(C(=O)C(=O)N4CCN(C(=O)c5ccccc5)CC4)c[nH]c23)n1` [Example 145], for which the EC50 was less than 1 µM.

Take `COC(=O)c1c[nH]c(-c2ccc(F)c3c(C(=O)C(=O)N4CCN(C(=O)c5ccccc5)CC4)c[nH]c23)n1` [Example 146]: the EC50 was less than 1 µM.

`CNC(=O)c1c[nH]c(-c2ccc(F)c3c(C(=O)C(=O)N4CCN(C(=O)c5ccccc5)CC4)c[nH]c23)n1` [Example 147]: the EC50 is less than 1 µM.

`COc1ccc(C(N)=O)c2[nH]cc(C(=O)C(=O)N3CCN(C(=O)c4ccccc4)CC3)c12` [Example 148]: the EC50 is less than 1 µM.

Regarding `O=C(C(=O)N1CCN(C(=O)c2ccccn2)CC1)c1c[nH]c2c(-c3nnn(C(F)F)n3)ccc(F)c12` [Example 149], the EC50 is less than 1 µM.

Take `O=C(C(=O)N1CCN(C(=O)c2cccc([N+](=O)[O-])c2)CC1)c1c[nH]c2c(-c3ncon3)ccc(F)c12` [Example 150A]: the EC50 is less than 1 µM.

As to `O=C(C(=O)N1CCN(C(=O)c2c(F)cccc2F)CC1)c1c[nH]c2c(-c3ncon3)ccc(F)c12` [Example 150B], the EC50 was less than 1 µM.

In the case of `O=C(C(=O)N1CCN(C(=O)c2ccccc2F)CC1)c1c[nH]c2c(-c3ncon3)ccc(F)c12` [Example 150C], the EC50 was less than 1 µM.

As to `Nc1cccc(C(=O)N2CCN(C(=O)C(=O)c3c[nH]c4c(-c5ncon5)ccc(F)c34)CC2)c1` [Example 151], the EC50 was less than 1 µM.

As to `COCCNC(=O)c1ccc(F)c2c(C(=O)C(=O)N3CCN(C(=O)c4ccccc4)CC3)c[nH]c12` [Example 152], the EC50 was less than 1 µM.

As to `CC(C)(C)OC(=O)NCCNC(=O)c1ccc(F)c2c(C(=O)C(=O)N3CCN(C(=O)c4ccccc4)CC3)c[nH]c12` [Example 153], the EC50 was less than 1 µM.

For `NCCNC(=O)c1ccc(F)c2c(C(=O)C(=O)N3CCN(C(=O)c4ccccc4)CC3)c[nH]c12` [Example 154], the EC50 was less than 1 µM.

Take `C[C@@H]1CN(C(=O)c2ccccc2)CCN1C(=O)C(=O)c1c[nH]c2c(-c3noc(N)n3)ccc(F)c12` [Example 155]: the concentration for a half-maximal effect (EC50) is less than 1 µM.

For `CN(C)c1nc(-c2ccc(F)c3c(C(=O)C(=O)N4CCN(C(=O)c5ccccc5)CC4)c[nH]c23)no1` [Example 156], the EC50 was less than 1 µM.

As to `CNc1nc(-c2ccc(F)c3c(C(=O)C(=O)N4CCN(C(=O)c5ccccc5)CC4)c[nH]c23)no1` [Example 157], the EC50 is less than 1 µM.

For `CC(C)Nc1nc(-c2ccc(F)c3c(C(=O)C(=O)N4CCN(C(=O)c5ccccc5)CC4)c[nH]c23)no1` [Example 158], the EC50 was less than 1 µM.

In the case of `C[C@@H]1CN(C(=O)c2ccccc2)CCN1C(=O)C(=O)c1c[nH]c2c(-c3noc(NCCN4CCOCC4)n3)ccc(F)c12` [Example 159], the EC50 is less than 1 µM.

As for `CCC(C)Nc1nc(-c2ccc(F)c3c(C(=O)C(=O)N4CCN(C(=O)c5ccccc5)C[C@H]4C)c[nH]c23)no1` (stereo partly drawn) [Example 160], the EC50 is less than 1 µM.

Turning to `C[C@@H]1CN(C(=O)c2ccccc2)CCN1C(=O)C(=O)c1c[nH]c2c(-c3noc(NC4CCC4)n3)ccc(F)c12` [Example 161], the EC50 was less than 1 µM.

`C[C@@H]1CN(C(=O)c2ccccc2)CCN1C(=O)C(=O)c1c[nH]c2c(-c3noc(NC4CCCC4)n3)ccc(F)c12` [Example 162]: the concentration giving a half-maximal response (EC50) is less than 1 µM.

For the compound `O=C(C(=O)N1CCN(C(=O)c2ccccc2)CC1)c1c[nH]c2c(C3=NCCN3)ccc(F)c12` [Example 163], the EC50 was less than 1 µM.

On to `O=C(C(=O)N1CCN(C(=O)c2ccccc2)CC1)c1c[nH]c2c(-c3nc4cnccc4[nH]3)ccc(F)c12` [Example 164], for which the EC50 was less than 1 µM.

For the compound `O=C(C(=O)N1CCN(C(=O)c2ccccc2)CC1)c1c[nH]c2c(-c3nc4ncccc4[nH]3)ccc(F)c12` [Example 165], the EC50 was less than 1 µM.

Take `N=C(Nc1cccnc1N)c1ccc(F)c2c(C(=O)C(=O)N3CCN(C(=O)c4ccccc4)CC3)c[nH]c12` [Example 166]: the EC50 was less than 1 µM.

As for `C[C@@H]1CN(C(=O)c2ccccc2)CCN1C(=O)C(=O)c1c[nH]c2c(-c3noc(=O)[nH]3)ccc(F)c12` [Example 176], the EC50 is less than 1 µM.

Regarding `C[C@@H]1CN(C(=O)c2ccccc2)CCN1C(=O)C(=O)c1c[nH]c2c(C(=O)NCCN3CCOCC3)ccc(F)c12` [Example 177], the EC50 was less than 1 µM.

Regarding `Cc1nc(-c2ccc(F)c3c(C(=O)C(=O)N4CCN(C(=O)c5ccccc5)C[C@H]4C)c[nH]c23)no1` [Example 178], the EC50 is less than 1 µM.

For the compound `C[C@@H]1CN(C(=O)c2ccccc2)CCN1C(=O)C(=O)c1c[nH]c2c(-c3noc(C4CC4)n3)ccc(F)c12` [Example 179], the EC50 was less than 1 µM.

With `C[C@@H]1CN(C(=O)c2ccccc2)CCN1C(=O)C(=O)c1c[nH]c2c(-c3noc(C(F)(F)F)n3)ccc(F)c12` [Example 180], the EC50 is less than 1 µM.

For the compound `C[C@@H]1CN(C(=O)c2ccccc2)CCN1C(=O)C(=O)c1c[nH]c2c(-c3ncon3)ccc(F)c12` [Example 181], the concentration giving a half-maximal response (EC50) is less than 1 µM.

For `COC(=O)c1nc(-c2ccc(F)c3c(C(=O)C(=O)N4CCN(C(=O)c5ccccc5)C[C@H]4C)c[nH]c23)no1` [Example 182], the EC50 was less than 1 µM.

With `N/C(=N\O)c1ccc(F)c2c(C(=O)C(=O)N3CCN(C(=O)c4ccccn4)CC3)c[nH]c12` [Example 183], the EC50 was less than 1 µM.

For `NC(=O)c1ccc(F)c2c(C(=O)C(=O)N3CCN(C(=O)c4ccccn4)CC3)c[nH]c12` [Example 184], the EC50 was less than 1 µM.

On to `C[C@@H]1CN(C(=O)c2ccccn2)CCN1C(=O)C(=O)c1c[nH]c2c(-c3noc(C(Cl)(Cl)Cl)n3)ccc(F)c12` [Example 187], for which the EC50 was less than 1 µM.

In the case of `O=C(C(=O)N1CCN(C(=O)c2ccccn2)CC1)c1c[nH]c2c(-c3noc(C(Cl)(Cl)Cl)n3)ccc(F)c12` [Example 188], the EC50 is less than 1 µM.

Take `Nc1nc(-c2ccc(F)c3c(C(=O)C(=O)N4CCN(C(=O)c5ccccn5)CC4)c[nH]c23)no1` [Example 189]: the EC50 was less than 1 µM.

Turning to `C[C@@H]1CN(C(=O)c2ccccn2)CCN1C(=O)C(=O)c1c[nH]c2c(-c3noc(N)n3)ccc(F)c12` [Example 190], the EC50 was less than 1 µM.

In the case of `O=C(C(=O)N1CCN(C(=O)c2ccccn2)CC1)c1c[nH]c2c(-c3ncon3)ccc(F)c12` [Example 191], the EC50 is less than 1 µM.

Consider `C[C@@H]1CN(C(=O)c2ccccn2)CCN1C(=O)C(=O)c1c[nH]c2c(-c3ncon3)ccc(F)c12` [Example 192], for which the EC50 was less than 1 µM.

As for `O=C(C(=O)N1CCN(C(=O)c2ccccc2)CC1)c1c[nH]c2c(-c3nnc(C(Cl)(Cl)Cl)o3)ccc(F)c12` [Example 193], the 50% effective concentration (EC50) was less than 1 µM.

Consider `O=C(C(=O)N1CCN(C(=O)c2ccccc2)CC1)c1c[nH]c2c(-c3n[nH]c(CCl)n3)ccc(F)c12` [Example 194], for which the EC50 is less than 1 µM.

Take `C[C@@H]1CN(C(=O)c2ccccc2)CCN1C(=O)C(=O)C1CNc2c(C(=O)O)cccc21` (stereo partly drawn) [Example 215, 1-benzoyl-3-(R)-methyl-4-[(7-carboxyindolin-3-yl)-2-oxoacetyl]piperazine]: the EC50 is less than 1 µM.

With `COC(=O)/C=C/c1ccc(F)c2c(C(=O)C(=O)N3CCN(C(=O)c4ccccc4)CC3)c[nH]c12` [Example 217], the EC50 is less than 1 µM.

The same assay, now with this note: Human immunodeficiency virus 1, HeLa-CD4/CCR5, read-out: % Inhibition @ 10 uM.
Regarding `C[C@@H]1CN(C(=O)c2ccccc2)CCN1C(=O)C(=O)c1c[nH]c2c(-c3nnn(C)n3)ccc(F)c12` [Example 175], the inhibition at 10 µM is greater than 98%.
